According to patent EP2241555A1, “New RAC1 inhibitors as potential pharmacological agents for heart failure treatment” (UNIVERSITA' DEGLI STUDI DI MILANO, priority 2009, dated 2010):
Like-named read-outs stand apart in the source and are kept apart here. Each block holds one compound with its values, some of them ahead of it.

How the values were obtained:
[1] = system: HepG2 cells; assay: Resazurine cytotoxicity assay (metabolic activity), HepG2; type: cell-based, human; settings: for toxic classification / MVC / EC50: HepG2, 24 h; for toxic classification: classification in words in the text; for MVC: maximal viability concentration; for Cytotoxicity-Classification: HepG2, 24 h exposure; for EC50: Homo sapiens
Description: (§1) For a pre-screening of the compounds they were first tested in human hepatocellular carcinoma cells (HepG2 cells)for 24 h and to gain further information about the cytotoxic potential more specific target tissues like the mouse cardiomyocytes HL-1 and primary rat cardiomyocytes were used additionally. […] The toxicity classification has been determined by using drugs currently utilized in clinic with known toxicity profile

[2] = system: HL-1 cells; assay: Apoptosis of ischemic HL-1 cardiomyocytes (TUNEL assay, flow cytometer); type: cell-based, mouse; settings: 100 µM; 8 h ischemia (glucose deficient medium + hydrogen peroxide); 8h Ischemia alone 701.6, 8h Control 100
Description: To establish a cardiomyocytes based apoptosis assay, which mimics the post-ischemic damage observed after myocardial infarction, we have utilized a cardiac muscle cell line, HL-1 cells, derived from the AT-1 mouse atrial cardiomyocyte tumor lineage. The HL-1 cells were incubated in glucose deficient medium in the presence of hydrogen peroxide and either in presence or absence of compounds of the invention Apoptosis rate of ischemic HL-1 cells was normalised to the apoptosis rate of the 8h control cells under non-ischemic conditions, thus incubated with normal concentration of glucose in the absence of hydrogen peroxide. Both non-ischemic and ischemic HL-1 cultures were harvested after 8 hours. […] The apoptotic rates were then evaluated by TUNEL assay, a method for detecting DNA strand breaks in apoptotic cells by flow cytometer The solvent of the compounds, i.e DMSO, has no influence on the apoptosis rate. […] Effect of newly synthesized compounds with Rac1 inhibitory activity on apoptosis rate in HL-1 cells normalized to control (TUNEL-assay) The data are representative of two experiments.

[3] = Caco2 monolayer permeation; type: in vitro ADME, human; settings: human, Caco-2, Caco2 monolayers, start concentration 50 µM
Description: (§2) The permeation characteristics of the Rac1 inhibitors were determined first in the artificial system PAMPA (Parallel Artificial Membrane Permeability Assay) which uses a membrane covered with a lipid to simulate the lipid bilayer of various cell types, including intestinal epithelium and second in vitro across Caco2, a human colon carcinoma cell line seeded as monolayers onto polycarbonate membranes. The PAMPA is able to predict the ability of a compound to permeate by a passive transcellular transport through an artificial lipid layer assembled on a membrane and also allows a classification into low (flux <20%), medium (20%≤ flux ≤70%), and high (flux >70%) absorbing substances. The Caco2 assay provides a well-established in vitro model to predict the human intestinal absorption.

[4] = system: Caco2; assay: Caco2 monolayer permeation; type: in vitro ADME, human; settings: Caco2 monolayers, 90 min, start concentration 50 µM
Description: as §2

[5] = PAMPA (Parallel Artificial Membrane Permeability Assay); type: in vitro ADME; settings: start concentration 250 µM, diffusion period 16 h
Description: as §2
The flux rate of the compounds of the invention and the reference NSC23766 was measured from a donor compartment to an acceptor compartment across the lipid layer at a start concentration of 250 µM over a diffusion period of 16 h.

[6] = biological target: T1, Rac1 (Homo sapiens, UniProt P63000); assay: G-LISA assay of intracellular Rac1-GTP in PDGF-BB stimulated human smooth muscle cells; type: cell-based; settings: for remaining activity at 50 µM / remaining activity at 100 µM: read-out: Rac1 inhibitory activity (% vs control); for inhibitory action on Rac1 activity: G-LISA, 50 µM, statement in words; for remaining activity at 100 µM: Concentration 100 µm
T1 construct: endogenous in cells; host or cells: human cultured smooth muscle cells, stimulated with PDGF-BB
From the text: The intracellular amount of Rac1-GTP has been determined using the GLISA™ assay (Cytoskeleton, Inc). The GLISA™ assay uses a 96-well plate coated with RBD domain of Rac1-family effector protein PAK1. […] A significant inhibition on Rac1 activity should decrease the intracellular levels of Rac1-GTP and therefore reduce the percentage of Rac1-GTP detected compared to control untreated cells.

[7] = system: primary rat cardiomyocytes; assay: Resazurine cytotoxicity assay (metabolic activity), primary rat cardiomyocytes; type: cell-based; settings: for MVC / EC50: 24 h; for MVC: maximal viability concentration; for Cytotoxicity-Classification: 24 h exposure; for EC50: Cardiomyocyte, metabolic activity
Description: as §1

[8] = system: HL-1; assay: Resazurine cytotoxicity assay (metabolic activity), HL-1; type: cell-based, mouse; settings: for MVC / EC50: HL-1, 24 h; for MVC: maximal viability concentration; for Cytotoxicity-Classification: HL-1, 24 h exposure; for EC50: Mus musculus, metabolic activity
Description: as §1

[9] = tissue homogenate, 60 min, 10 µM
Description: The basic incubation mixture with total volume of 500 µl consisted of the following components. 100 µl liver homogenate, compound in DMSO (dimethyl sulfoxide) and 1 mM NADPH (reduced nicotinamide adenine dinucleotide phosphate), 1 mM UDPGA (uridine 5'-diphosphoglucuronic acid), 1 mM PAPS (3'-phosphoadenosine-5'-phosphosulfate) and 1 mM GSH (glutathione). The substrate concentration used was 10 µM. Two parallel incubations, one with cofactors and one without, were made. Final DMSO concentration in the incubation was 1 µM. […] Reaction was started by addition of a cofactor mixture and stopped by adding 250 µl of ice-cold acetonitrile.

[10] = Concentration 50 µm, 4 hours incubation, then PDGF-BB 10 ng/ml, Rac1-GTP detected relative to control (100), lower = more inhibition
[11] = metabolic activity, read-out: EC50
[12] = 4 hours incubation, then PDGF-BB 10 ng/ml, Rac1-GTP detected relative to control (100), lower = more inhibition

SMILES: CCN(CC)CCCC(C)Nc1nc(C)cc(Nc2ccc3nc(C)cc(N)c3c2)n1 (racemic) [NSC23766, reference compound]
toxic classification [1]: not toxic (not toxic (EC50 > 500 µM)) | MVC [1]: 31.2 µM | Cytotoxicity-Classification [1]: no (EC50 > 500 µM, (no)) | EC50 [1]: > 500 µM | Relative rate of apoptosis normalised to control [%] [2]: 546.5% | Papp at 90 min, 50 µM [3]: 2.4 ± 4.2 ×10⁻⁶ cm/s | Caco2 Classification [4]: medium (compounds with Papp between 1 and 10 are moderately absorbed (20 - 70%)) | PAMPA classification [5]: low (low (flux <20%)) | PAMPA flux [%] ± SD [5]: 11±4%

SMILES: CCN(CC)CCCC(C)Nc1nc(C)cc(Oc2ccc3nc(C)ccc3c2)n1 (stereo not drawn) [CWB001/01018, N1,N1-Diethyl-N4-[4-methyl-6-(2-methyl-quinolin-6-yloxy)-pyrimidin-2-yl]-pentane-1,4-diamine]
remaining activity at 50 µM [6, 10]: 102%

SMILES: CCN(CC)CCCC(C)Nc1nc(C)cc(NCCc2c[nH]c3ccccc23)n1 (stereo not drawn) [CWB002/02038, N2-(4-Diethylamino-1-methyl-butyl)-N4-[2-(1H-indol-3-yl)-ethyl)-6-methylpyrimidine-2,4-diamine]
remaining activity at 50 µM [6, 10]: 109%

SMILES: CCN(CC)CCCC(C)Nc1nc(C)cc(Nc2ccc3ncccc3c2)n1 (stereo not drawn) [CWB003/01020, N2-(4-Diethylamino-1-methyl-butyl)-6-methyl-N4-quinolin-6-yl-pyrimidine-2,4-diamine]
remaining activity at 50 µM [6, 10]: 93.8%

SMILES: CCN(CC)CCCC(C)Nc1nc(C)cc(Nc2ccc3nc(C)cc(O)c3c2)n1 (stereo not drawn) [CWB005/02039, 6-[2-(4-Diethylamino-1-methyl-butylamino)-6-methyl-pyrimidin-4-ylamino]-2-methyl-quinolin-4-ol]
remaining activity at 50 µM [6, 10]: 106%

SMILES: Cc1cc(Nc2ccc3nc(C)cc(O)c3c2)nc(NCCc2c[nH]c3ccccc23)n1 [CWB006/02035, 6-{2-[2-(1H-Indol-3-yl)-ethylamino]-6-methyl-pyrimidin-4-ylamino}-2-methyl-quinolin-4-ol]
remaining activity at 50 µM [6, 10]: 91.5%

SMILES: CCN(CC)CCCC(C)Nc1nc(C)cc(N2CCOCC2)n1 (stereo not drawn) [CWB007/02040, N1,N1-Diethyl-N4-(4-methyl-6-morpholin-4-yl-pyrimidin-2-yl)-pentane-1,4-diamine]
remaining activity at 50 µM [6, 10]: 101%

SMILES: CCN(CC)CCCC(C)Nc1nc(C)cc(N2CCCCC2)n1 (stereo not drawn) [CWB008/02044, N1,N1-Diethyl-N4-(4-methyl-6-piperidin-1-yl-pyrimidin-2-yl)-pentane-1,4-diamine]
remaining activity at 50 µM [6, 10]: 95.8%

SMILES: CCN(CC)CCCNc1nc(C)cc(Oc2ccc3nc(C)ccc3c2)n1 [CWB011/01023, N,N-Diethyl-N'-[4-methyl-6-(2-methyl-quinolin-6-yloxy)-pyrimidin-2-yl]-propane-1,3-diamine]
remaining activity at 50 µM [6, 10]: 94.8%

SMILES: CCOC(=O)CNc1cc(C)nc(NC(C)CCCN(CC)CC)n1 (stereo not drawn) [CWB012/01025, [2-(4-Diethylamino-1-methyl-butylamino)-6-methyl-pyrimidin-4-ylamino]-acetic acid ethyl ester]
remaining activity at 50 µM [6, 10]: 92.9%

SMILES: COC(=O)C(CC(C)C)Nc1cc(C)nc(Nc2ccc3ncccc3c2)n1 (stereo not drawn) [CWB018/01034, 4-Methyl-2-[6-methyl-2-(quinolin-6-ylamino)-pyrimidin-4-ylamino]-pentanoic acid methyl ester]
MVC [7]: 31.2 µM | Cytotoxicity-Classification [7]: ++ (10 µM < EC50 ≤ 100 µM, medium (++)) | EC50 [7]: 85 µM | toxic classification [1]: low toxic (low toxic (100 µM < EC50 ≤ 500 µM)) | MVC [1]: 62.5 µM | Cytotoxicity-Classification [1]: + (100 µM < EC50 ≤ 500, low (+)) | EC50 [1, 11]: 162 µM | remaining activity at 50 µM [6, 10]: 34.2% | inhibitory action on Rac1 activity [6]: significant end efficient inhibitory action | Papp at 90 min, 50 µM [3]: 20.5 ± 1.9 ×10⁻⁶ cm/s | Caco2 Classification [4]: high (compounds with a Papp >10 are predicted to be well absorbed (70 - 100%)) | MVC [8]: 15.6 µM | Cytotoxicity-Classification [8]: ++ (10 µM < EC50 ≤ 100 µM, medium (++)) | EC50 [8]: 68 µM | PAMPA classification [5]: high (high (flux >70%)) | PAMPA flux [%] ± SD [5]: 85±11%

SMILES: CCN(CC)CCCC(C)Nc1nccc(Oc2ccc3ccccc3c2)n1 (stereo not drawn) [CWB019/01037]
Remaining Rac1-GTP (% of control) [6, 10]: 101.3%

SMILES: c1cc(NCc2ccc3[nH]ccc3c2)nc(NCc2ccc3[nH]ccc3c2)n1 [CWB020/01041, N2,N4-Bis-(1H-indol-5-ylmethyl)-pyrimidine-2,4-diamine]
MVC [7]: 3.9 µM | Cytotoxicity-Classification [7]: ++ (10 µM < EC50 ≤ 100 µM, medium (++)) | EC50 [7]: 17 µM | MVC [1]: 7.8 µM | Cytotoxicity-Classification [1]: ++ (10 µM < EC50 ≤ 100 µM, medium (++)) | EC50 [1, 11]: 64 µM | remaining LC/MS peak area (relative to 0 min incubation samples, %) [9]: 33-41% | remaining activity at 50 µM [6, 10]: 17.1% | inhibitory action on Rac1 activity [6]: significant end efficient inhibitory action | Papp at 90 min, 50 µM [3]: 65.9 ± 3.1 ×10⁻⁶ cm/s | Caco2 Classification [4]: high (compounds with a Papp >10 are predicted to be well absorbed (70 - 100%)) | MVC [8]: 15.6 µM | Cytotoxicity-Classification [8]: ++ (10 µM < EC50 ≤ 100 µM, medium (++)) | EC50 [8]: 39 µM | PAMPA classification [5]: high (high (flux >70%)) | PAMPA flux [%] ± SD [5]: 54±4%

The remaining lines, values ahead:

remaining activity at 50 µM [6, 10]: 83.9%
SMILES: CCN(CC)CCCC(C)Nc1nc(C)cc(NCC(=O)O)n1 (stereo not drawn) [CWB015/01031, [2-(4-Diethylamino-1-methyl-butylamino)-6-methyl-pyrimidin-4-ylamino]-acetic acid]

remaining activity at 50 µM [6, 10]: 93.2%
SMILES: CCN(CC)CCCC(C)Nc1cc(C)nc(N2CCOCC2)n1 (stereo not drawn) [CWB016/02046, N1,N1-Diethyl-N4-(6-methyl-2-morpholin-4-yl-pyrimidin-4-yl)-pentane-1,4-diamine]

remaining activity at 100 µM [6, 12]: 98%
SMILES: CCN(CC)CCCC(C)Nc1nccc(Nc2ccc3cc[nH]c3c2)n1 (stereo not drawn) [CWB023/02053, N2-(4-Diethylamino-1-methyl-butyl)-N4-(1H-indol-6-yl)-pyrimidine-2,4-diamine]

remaining activity at 100 µM [6, 12]: 123%
SMILES: CCN(CC)CCCC(C)Nc1nc(C)cc(NCCc2c[nH]c3ccc(O)cc23)n1 (stereo not drawn) [CWB025/02056, 3-{2-[2-(4-Diethylamino-1-methyl-butylamino)-6-methyl-pyrimidin-4-ylamino]-ethyl}-1H-indol-5-ol]

remaining activity at 100 µM [6, 12]: 108%
SMILES: CCN(CC)CCCCNc1nc(C)cc(NCCc2c[nH]c3ccc(O)cc23)n1 [CWB026/02057, 3-{2-[2-(4-Diethylamino-butylamino)-6-methyl-pyrimidin-4-ylamino]-ethyl}-1H-indol-5-ol]

remaining activity at 100 µM [6, 12]: 111%
SMILES: CCN(CC)CCCC(C)Nc1cc(C)nc(NCCc2c[nH]c3ccc(O)cc23)n1 (stereo not drawn) [CWB027/02058, 3-{2-[4-(4-diethylamino-1-methyl-butylamino)-6-methyl-pyrimidin-2-ylamino]-ethyl}-1H-indol-5-ol]
